Laboratory results from US20110312930A1, “Aryl compounds with aminoalkyl substituents and their use” (BAYER SCHERING PHARMA AKTIENGESELLSCHAFT, priority 2008, published 2011).
pIC50: −log10 of the molar value.

test system: HCT 116 cells transfected with a luciferase reporter under the control of an HIF-responsive sequence; assay: HIF-luciferase assay; type: cell-based; details: Homo sapiens; HCT 116 HIF-luciferase reporter cells, hypoxia chamber (1% O2), 24 h, luminescence
Protocol: HCT 116 cells were transfected in a stable manner with a plasmid which contained a luciferase reporter under the control of an HIF-responsive sequence. These cells were sown in microtitre plates [20 000 cells/cavity in RPMI 1640 medium with 10% foetal calf serum (FCS) and 100 μg/ml of hygromycin]. Incubation was carried out overnight under standard conditions (5% CO2, 21% O2, 37° C., moistened). The following morning the cells were incubated with various concentrations of the test substances (0-10 μmol/l) in a hypoxia chamber (1% O2). After 24 h, Bright Glo reagent (Promega, Wisconsin, USA) was added in accordance with the manufacturer's instructions, and after 5 min the luminescence was measured. Cells which were incubated under normoxia served as background controls.

| SMILES | pIC50 |
| --- | --- |
| Cc1cc(-c2nc(-c3ccc(C(C)(C)C(F)(F)F)cc3)no2)nn1Cc1ccc(NCCN2CCCC2)nc1 [Example 14, 5-[(5-Methyl-3-{3-[4-(1,1,1-trifluoro-2-methylpropan-2-yl)phenyl]-1,2,4-oxadiazol-5-yl}-1H-pyrazol-1-yl)methyl]-N-[2-(pyrrolidin-1-yl)ethyl]pyridine-2-amine] | 8.15 |
| Cc1cc(-c2nc(-c3ccc(OC(F)(F)F)cc3)no2)cn1Cc1ccc(NCCN2CCC(O)CC2)nc1 [Example 16] | 8.10 |
| Cc1cc(-c2nc(-c3ccc(S(=O)(=O)C(F)(F)F)cc3)no2)nn1Cc1ccc(NCCN2CCOCC2)nc1 [Example 22] | 8.00 |
| Cc1cc(-c2nc(-c3ccc(OC(F)(F)F)cc3)no2)nn1Cc1ccc(NCCN2CCOCC2)nc1 [Example 24] | 8.00 |
| Cc1cc(-c2nc(-c3ccc(OC(F)(F)F)cc3)no2)nn1Cc1cccc(C(=O)N(C)CCN(C)C)c1 [Example 48, N-[2-(Dimethylamino)ethyl]-N-methyl-3-[(5-methyl-3-{3-[4-(trifluoromethoxy)phenyl]-1,2,4-oxa-diazol-5-yl}-1H-pyrazol-1-yl)methyl]benzenecarboxamide] | 8.00 |
| Cc1cc(-c2nc(-c3ccc(OC(F)(F)F)cc3)no2)nn1Cc1cccc(OCCN2CCCC2)c1 [Example 57, 5-(5-Methyl-1-{3-[2-(pyrrolidin-1-yl)ethoxy]benzyl}-1H-pyrazol-3-yl)-3-[4-(trifluoromethoxy)-phenyl]-1,2,4-oxadiazole] | 8.00 |
| Cc1cc(-c2nc(-c3ccc(OC(F)(F)F)cc3)no2)nn1Cc1ccc(NCCN2CCOCC2)cc1 [Example 60, 4-[(5-Methyl-3-{3-[4-(trifluoromethoxy)phenyl]-1,2,4-oxadiazol-5-yl}-1H-pyrazol-1-yl)methyl]-N-[2-(morpholin-4-yl)ethyl]aniline] | 8.05 |
| Cc1cc(-c2nc(-c3ccc(OC(F)(F)F)cc3)no2)nn1Cc1ccc(SCCN2CCCC2)cc1 [Example 67, 5-[5-Methyl-1-(4-{[2-(pyrrolidin-1-yl)ethyl]sulphanyl}benzyl)-1H-pyrazol-3-yl]-3-[4-(trifluoromethoxy)phenyl]-1,2,4-oxadiazole] | 8.00 |

Continued, values first:

| pIC50 | SMILES |
| --- | --- |
| 8.22 | Cc1cc(-c2nc(-c3ccc(C(C)(C)C)cc3)no2)cn1Cc1ccc(NCCN2CCCC2)nc1 [Example 71] |
| 8.10 | Cc1cc(-c2nc(-c3ccc(OC(F)(F)F)cc3)no2)nn1Cc1ccc(NCCN2CCCC2=O)nc1 [Example 73] |
| 8.10 | Cc1cc(-c2nc(-c3ccc(OC(F)(F)F)cc3)no2)nn1Cc1ccc(NCCCN2CCCC2=O)nc1 [Example 74] |
| 8.60 | Cc1cc(-c2nc(-c3ccc(OC(F)(F)F)cc3)no2)nn1Cc1ccc(NCCN2CCS(=O)(=O)CC2)nc1 [Example 102, N-[2-(1,1-Dioxidothiomorpholin-4-yl)ethyl]-5-[(5-methyl-3-{3-[4-(trifluoromethoxy)phenyl]-1,2,4-oxadiazol-5-yl}-1H-pyrazol-1-yl)methyl]pyridine-2-amine] |
| 8.52 | Cc1cc(-c2nc(-c3ccc(OC(F)(F)F)cc3)no2)nn1Cc1ccc(NCCN2CCC(F)(F)CC2)nc1 [Example 103, N-[2-(4,4-Difluoropiperidin-1-yl)ethyl]-5-[(5-methyl-3-{3-[4-(trifluoromethoxy)phenyl]-1,2,4-oxa-diazol-5-yl}-1H-pyrazol-1-yl)methyl]pyridine-2-amine] |
| 9.00 | Cc1cc(-c2nc(-c3ccc(OC(F)(F)F)cc3)no2)nn1Cc1cccc(OCCN2CCOCC2)c1 [Example 123, 4-(2-{3-[(5-Methyl-3-{3-[4-(trifluoromethoxy)phenyl]-1,2,4-oxadiazol-5-yl}-1H-pyrazol-1-yl)-methyl]phenoxy}ethyl)morpholine] |
| 8.30 | Cc1cc(-c2nc(-c3ccc(OC(F)(F)F)cc3)no2)nn1Cc1cccc(OCCN(C)C)c1 [Example 124, N,N-Dimethyl-2-{3-[(5-methyl-3-{3-[4-(trifluoromethoxy)phenyl]-1,2,4-oxadiazol-5-yl}-1H-pyrazol-1-yl)methyl]phenoxy}ethanamine] |
